According to patent US8906889B2, “C-3 cycloalkenyl triterpenoids with HIV maturation inhibitory activity” (priority 2012, dated 2014):
Where a name gives a salt, the structure may show the parent alone.

Tested on: recombinant NL4-3 virus (Renilla luciferase, Gag P373S)
Experiment: HIV cell culture assay (luciferase reporter, MT-2 cells)
Format: cell-based
Conditions: luciferase activity
Description: MT-2 cells and 293T cells were obtained from the NIH AIDS Research and Reference Reagent Program. MT-2 cells were propagated in RPMI 1640 media supplemented with 10% heat inactivated fetal bovine serum, […]. The 293T cells were propagated in DMEM media supplemented with 10% heat inactivated fetal bovine serum (FBS), 100 units/ml penicillin G and 100 μg/ml streptomycin. The proviral DNA clone of NL4-3 was obtained from the NIH AIDS Research and Reference Reagent Program. A recombinant NL4-3 virus, in which a section of the nef gene from NL4-3 was replaced with the Renilla luciferase gene, was used as a reference virus. In addition, residue Gag P373 was converted to P373S. Briefly, the recombinant virus was prepared by transfection of the altered proviral clone of NL4-3. Transfections were performed in 293T cells using LipofectAMINE PLUS from Invitrogen (Carlsbad, Calif.), according to manufacturer's instruction. The virus was titered in MT-2 cells using luciferase enzyme activity as a marker. Luciferase was quantitated using the Dual Luciferase kit from Promega (Madison, Wis.), with modifications to the manufacturer's protocol. The diluted Passive Lysis solution was pre-mixed with the re-suspended Luciferase Assay Reagent and the re-suspended Stop & Glo Substrate (2:1:1 ratio). Fifty (50) μL of the mixture was added to each aspirated well on assay plates and luciferase activity was measured immediately on a Wallac TriLux (Perkin-Elmer). Antiviral activities of inhibitors toward the recombinant virus were quantified by measuring luciferase activity in cells infected for 4-5 days with NLRluc recombinants in the presence serial dilutions of the inhibitor.

[1] = Renilla, NL43, MT-2 cells infected for 4-5 days with NLRluc recombinants

Row | SMILES | EC50 [1] | EC50 (MT-2 cells infected for 4-5 days with NLRluc recombinants)
1 | C=C(C)[C@@H]1CC[C@]2(NCCN(c3ccc(Cl)cn3)S(=O)(=O)C(F)(F)F)CC[C@]3(C)[C@H](CC[C@@H]4[C@@]5(C)CC=C(C6=CC7(C6)CC(C(=O)O)(C(=O)O)C7)C(C)(C)[C@@H]5CC[C@]43C)[C@@H]12 [Example A3, 6-((1R,3 aS,5aR,5bR,7aR,11aS,11bR,13 aR,13bR)-3a-((2-(N-(5-chloropyridin-2-yl)-1,1,1-trifluoromethylsulfonamido)ethyl)amino)-5a,5b,8,8,11a-pentamethyl-1-(prop-1-en-2-yl)-2,3,3a,4,5,5a,5b,6,7,7a,8,11,11a,11b,12,13,13a,13b-octadecahydro-1H-cyclopenta[a]chrysen-9-yl)spiro[3.3]hept-5-ene-2,2-dicarboxylic acid] | 1750 nM | –
2 | C=C(C)[C@@H]1CC[C@]2(NCCN3CCS(=O)(=O)CC3)CC[C@]3(C)[C@H](CC[C@@H]4[C@@]5(C)CC=C(C6=CCC(Cl)(C(=O)O)CC6)C(C)(C)[C@@H]5CC[C@]43C)[C@@H]12 (stereo partly drawn) [Example A7, 1-chloro-4-((1R,3aS,5aR,5bR,7aR,11aS,11bR,13aR,13bR)-3a-((2-(1,1-dioxidothiomorpholino)ethyl)amino)-5a,5b,8,8,11a-pentamethyl-1-(prop-1-en-2-yl)-2,3,3a,4,5,5a,5b,6,7,7a,8,11,11a,11b,12,13,13a,13b-octadecahydro-1H-cyclopenta[a]chrysen-9-yl)cyclohex-3-enecarboxylic acid] | 2.91 nM | –
3 | C=C(C)[C@@H]1CC[C@]2(NCCN3CCS(=O)(=O)CC3)CC[C@]3(C)[C@H](CC[C@@H]4[C@@]5(C)CC=C(C6=CC(C(=O)O)C(C(=O)O)C6)C(C)(C)[C@@H]5CC[C@]43C)[C@@H]12 (single isomer, unassigned) [Example A20] | – | 60 nM
4 | C=C(C)[C@@H]1CC[C@]2(NCCN3CCC(S(C)(=O)=O)CC3)CC[C@]3(C)[C@H](CC[C@@H]4[C@@]5(C)CC=C(C6=CCC(C#N)(C(=O)O)CC6)C(C)(C)[C@@H]5CC[C@]43C)[C@@H]12 (mixture of isomers) [Example A6, 1-cyano-4-((1R,3aS,5aR,5bR,7aR,11aS,11bR,13aR,13bR)-5a,5b,8,8,11a-pentamethyl-3a-((2-(4-(methylsulfonyl)piperidin-1-yl)ethyl)amino)-1-(prop-1-en-2-yl)-2,3,3a,4,5,5a,5b,6,7,7a,8,11,11a,11b,12,13,13a,13b-octadecahydro-1H-cyclopenta[a]chrysen-9-yl)cyclohex-3-enecarboxylic acid] | 6.18 nM | –
5 | C=C(C)[C@@H]1CC[C@]2(NCCN3CCC(S(C)(=O)=O)CC3)CC[C@]3(C)[C@H](CC[C@@H]4[C@@]5(C)CC=C(C6=CCC(C(=O)O)CC6)C(C)(C)[C@@H]5CC[C@]43C)[C@@H]12 (stereo partly drawn) [Example 13, 4-((1R,3aS,5aR,5bR,7aR,11aS,11bR,13aR,13bR)-5a,5b,8,8,11a-pentamethyl-3a-((2-(4-(methylsulfonyl)piperidin-1-yl)ethyl)amino)-1-(prop-1-en-2-yl)-2,3,3a,4,5,5a,5b,6,7,7a,8,11,11a,11b,12,13,13a,13b-octadecahydro-1H-cyclopenta[a]chrysen-9-yl)cyclohex-3-enecarboxylic acid, TFA] | 0.975 nM | –
6 | C=C(C)[C@@H]1CC[C@]2(NCCN3CCS(=O)(=O)CC3)CC[C@]3(C)[C@H](CC[C@@H]4[C@@]5(C)CC=C(C6=CCC(C(=O)O)C6)C(C)(C)[C@@H]5CC[C@]43C)[C@@H]12 (stereo partly drawn) [Example A22, 3-((1R,3aS,5aR,5bR,7aR,11aS,11bR,13aR,13bR)-3a-((2-(1,1-dioxidothiomorpholino)ethyl)amino)-5a,5b,8,8,11a-pentamethyl-1-(prop-1-en-2-yl)-2,3,3a,4,5,5a,5b,6,7,7a,8,11,11a,11b,12,13,13a,13b-octadecahydro-1H-cyclopenta[a]chrysen-9-yl)cyclopent-3-enecarboxylic acid] | 3.53 nM | –
7 | C=C(C)[C@@H]1CC[C@]2(NCCO)CC[C@]3(C)[C@H](CC[C@@H]4[C@@]5(C)CC=C(C6=CC[C@H](C(=O)O)CC6)C(C)(C)[C@@H]5CC[C@]43C)[C@@H]12 [Example 19, (R)-4-((1R,3aS,5aR,5bR,7aR,11aS,11bR,13aR,13bR)-3a-((2-hydroxyethyl)amino)-5a,5b,8,8,11a-pentamethyl-1-(prop-1-en-2-yl)-2,3,3a,4,5,5a,5b,6,7,7a,8,11,11a,11b,12,13,13a,13b-octadecahydro-1H-cyclopenta[a]chrysen-9-yl)cyclohex-3-enecarboxylic acid, TFA] | 1.14 nM | –
8 | C=C(C)[C@@H]1CC[C@]2(NCCN3CCS(=O)(=O)CC3)CC[C@]3(C)[C@H](CC[C@@H]4[C@@]5(C)CC=C(C6=CCC(C(=O)NS(C)(=O)=O)CC6)C(C)(C)[C@@H]5CC[C@]43C)[C@@H]12 (stereo partly drawn) [Example 21, 4-((1R,3aS,5aR,5bR,7aR,11aS,11bR,13aR,13bR)-3a-((2-(1,1-dioxidothiomorpholino)ethyl)amino)-5a,5b,8,8,11a-pentamethyl-1-(prop-1-en-2-yl)-2,3,3a,4,5,5a,5b,6,7,7a,8,11,11a,11b,12,13,13a,13b-octadecahydro-1H-cyclopenta[a]chrysen-9-yl)-N-(methylsulfonyl)cyclohex-3-enecarboxamide, TFA] | 1.8 nM | –
9 | C=C(C)[C@@H]1CC[C@]2(NCCN(c3ccccc3)S(=O)(=O)C(F)(F)F)CC[C@]3(C)[C@H](CC[C@@H]4[C@@]5(C)CC=C(C6=CC7(C6)CC(C(=O)O)(C(=O)O)C7)C(C)(C)[C@@H]5CC[C@]43C)[C@@H]12 [Example A2, 6-((1R,3aS,5aR,5bR,7aR,11aS,11bR,13aR,13bR)-5a,5b,8,8,11a-pentamethyl-1-(prop-1-en-2-yl)-3a-((2-(1,1,1-trifluoro-N-phenylmethylsulfonamido)ethyl)amino)-2,3,3a,4,5,5a,5b,6,7,7a,8,11,11a,11b,12,13,13a,13b-octadecahydro-1H-cyclopenta[a]chrysen-9-yl)spiro[3.3]hept-5-ene-2,2-dicarboxylic acid] | 1070 nM | –
10 | C=C(C)[C@@H]1CC[C@]2(NCCN3CCOCC3)CC[C@]3(C)[C@H](CC[C@@H]4[C@@]5(C)CC=C(C6=CC7(C6)CC(C(=O)O)(C(=O)O)C7)C(C)(C)[C@@H]5CC[C@]43C)[C@@H]12 [Example A4, 6-((1R,3aS,5aR,5bR,7aR,11aS,11bR,13aR,13bR)-5a,5b,8,8,11a-pentamethyl-3a-((2-morpholinoethyl)amino)-1-(prop-1-en-2-yl)-2,3,3a,4,5,5a,5b,6,7,7a,8,11,11a,11b,12,13,13a,13b-octadecahydro-1H-cyclopenta[a]chrysen-9-yl)spiro[3.3]hept-5-ene-2,2-dicarboxylic acid] | 100 nM | –
11 | C=C(C)[C@@H]1CC[C@]2(NCCN3CCS(=O)(=O)CC3)CC[C@]3(C)[C@H](CC[C@@H]4[C@@]5(C)CC=C(C6=CCC(O)(C(=O)O)CC6)C(C)(C)[C@@H]5CC[C@]43C)[C@@H]12 (stereo partly drawn) [Example 11, 4-((1R,3aS,5aR,5bR,7aR,11aS,11bR,13aR,13bR)-3a-((2-(1,1-dioxidothiomorpholino)ethyl)amino)-5a,5b,8,8,11a-pentamethyl-1-(prop-1-en-2-yl)-2,3,3a,4,5,5a,5b,6,7,7a,8,11,11a,11b,12,13,13a,13b-octadecahydro-1H-cyclopenta[a]chrysen-9-yl)-1-hydroxycyclohex-3-enecarboxylic acid, TFA] | 1.99 nM | –
12 | C=C(C)[C@@H]1CC[C@]2(NCCN3CCOCC3)CC[C@]3(C)[C@H](CC[C@@H]4[C@@]5(C)CC=C(C6=CCC(C(=O)O)CC6)C(C)(C)[C@@H]5CC[C@]43C)[C@@H]12 (stereo partly drawn) [Example 14, 4-((1R,3aS,5aR,5bR,7aR,11aS,11bR,13aR,13bR)-5a,5b,8,8,11a-pentamethyl-3a-((2-morpholinoethyl)amino)-1-(prop-1-en-2-yl)-2,3,3a,4,5,5a,5b,6,7,7a,8,11,11a,11b,12,13,13a,13b-octadecahydro-1H-cyclopenta[a]chrysen-9-yl)cyclohex-3-enecarboxylic acid, TFA] | 5.61 nM | –
13 | CC(C)[C@@H]1CC[C@]2(NCCN3CCS(=O)(=O)CC3)CC[C@]3(C)[C@H](CC[C@@H]4[C@@]5(C)CC=C(C6=CCC(C(=O)O)CC6)C(C)(C)[C@@H]5CC[C@]43C)[C@@H]12 (stereo partly drawn) [Example 8, 4-((1S,3aS,5aR,5bR,7aR,11aS,11bR,13aR,13bR)-3a-((2-(1,1-dioxidothiomorpholino)ethyl)amino)-1-isopropyl-5a,5b,8,8,11a-pentamethyl-2,3,3a,4,5,5a,5b,6,7,7a,8,11,11a,11b,12,13,13a,13b-octadecahydro-1H-cyclopenta[a]chrysen-9-yl)cyclohex-3-enecarboxylic acid, TFA] | 1.01 nM | –
